According to patent publication US9616062B2, “Cyclin dependent kinase inhibitors and methods of use” (priority 2009, dated 2017):

Experiments:
[1] = system: primary human renal proximal tubule epithelial cells; assay: γH2AX flow cytometry assay of etoposide-induced DNA damage; format: cell-based; details: 0, 100 nM, 300 nM or 1 μM for 16 h, then 2.5 μM etoposide for 8 h
Description: Cells were pretreated for 16 hours with PD0332991 followed by 8 hours with etoposide (Etop). Cells were collected, fixed and stained with anti-γH2AX FITC and analyzed by flow cytometry. Data was analyzed using FlowJo (Treestar, Inc., Ashland, Oreg., United States of America). The % γH2AX positive cells are shown in the accompanying graph.
Primary normal human renal proximal epithelial cells (American Type Culture Collection (ATCC), Manassas, Va., United States of America) were cultured in renal epithelial cell basal media supplemented with renal epithelial cell growth kit according to the manufacturer's recommendations. […] For the γH2AX assay, cells were fixed, permeabilized, and stained with anti-γH2AX as per γH2AX Flow Kit (Millipore, Billerica, Mass., United States of America). γH2AX levels were assessed by flow cytometry. Cell proliferation was assessed by seeding 1×10^3 cells per well in a 96-well tissue culture plate in 100 μL of growth medium. […] At the end of the recovery period, cell number was quantified using CellTiter-Glo® (Promega, Fitchburg, Wis., United States of America) or WST-1 reagent (TaKaRa Bio USA, Madison, Wis., United States of America). Cellular cytotoxicity was assessed using the TOXILIGHT™ Bioassay kit (Lonza, Basel, Switzerland) which measures cytolysis by quantifying the release of Adenylate Kinase into the culture media. […]

[2] = system: mice treated with cisplatin; format: in vivo, mouse; details: single dose PD0332991 150 mg/kg oral gavage with cisplatin 15 mg/kg IP; 72 hours post treatment
Description: FIG. 7: CDK4/6 inhibition protects kidney function in mice treated with cisplatin. Cohorts of mice were treated with cisplatin (10 mg/kg IP) alone (squares), PD0332991 (150 mg/kg PO) alone (diamonds) or immediately prior to cisplatin (10 mg/kg) (triangles). Kidney function was measured at day 7 by quantification of blood urea nitrogen (BUN) in mg/dL and serum creatinine (Serum Cr) in mg/dL. Data represents the mean of 6 animals per cohort +/−standard error of the mean.
To determine if CDK4/6 inhibition around the time of DNA damage would protect renal function, mice were treated with cisplatin, a known causative agent of renal tubular damage in humans. Mice were treated with PD0332991 150 mg/kg or vehicle control by oral gavage and then received a single dose of cisplatin 15 mg/kg by IP injection. 72 hours post treatment mice were euthanized and blood was collected by cardiac puncture for BUN (blood urea nitrogen) and serum creatinine (SrCr) analysis. Serum BUN and SrCr are common markers of renal function and serum levels quickly elevated when kidney function has been acutely compromised.

[3] = system: C3-TAg mice (RB-deficient breast cancer); assay: C3-Tag transgenic mouse model of basal-like breast cancer, tumor volume; format: in vivo; details: daily administration, 100 mg/kg daily in standard chow
Description: FIG. 9: CDK4/6 inhibition potentiates the efficacy of chemotherapy in mouse model of RB-deficient breast cancer. […] Data are % change in tumor volume and represents the mean of at least 15 animals per cohort +/−SEM
FIG. 10: CDK4/6 inhibition potentiates the efficacy of chemotherapy in mouse model of RB-deficient breast cancer. Mice were treated every 7 days for three weeks with carboplatin (90 mg/kg IP) alone (darkly shaded squares) or in combination with PD0332991 (150 mg/kg PO; lightly shaded squares). Data are % change in tumor volume and represents the mean of at least 15 animals per cohort +/−SEM.
The C3-TAg mice are a model of basal-like breast cancer. […] The MMTV-c-neu model expresses c-neu (the mouse ortholog of human HER2) driven by the mouse mammary tumor virus (MMTV) promoter and is a model of HER2+ breast cancer. When tumors were noted to be ˜0.2 cm^2 in size, animals were treated as described and tumor response assessed by daily caliper measurements.
The effects of CDK4/6 inhibition in the C3-Tag transgenic mouse model of basal-like breast cancer were also evaluated. […] Tumor volume was measured by caliper weekly. Tumor volume was calculated using the following formula: Volume=[(width)^2×length]/2. […] Treatments were administered on days 0, 7 and 14 and tumor volumes were measured weekly, until the mice died or were euthanized due to toxicity or tumor burden.

CC(=O)c1c(C)c2cnc(Nc3ccc(N4CCNCC4)cn3)nc2n(C2CCCC2)c1=O [PD0332991, 6-acetyl-8-cyclopentyl-5-methyl-2-(5-piperazin-1-yl-pyridin-2-ylamino)-8H-pyrido-[2,3-d]-pyrimidin-7-one]
etoposide-induced DNA damage (% γH2AX positive cells) [1]: abrogates etoposide-induced DNA damage | protection of renal function (BUN and SrCr) [2]: abrogate the cisplatin-induced nephrotoxicity | tumor growth at day 21 [3]: no effect on tumor growth
